{"source": "patent US11826332B2", "about": "“Antimicrobial compositions and uses thereof” (Board of Regents, The University of Texas System, priority 2016, dated 2023)", "key": {"[1]": {"test_system": "Escherichia coli (E. coli)", "assay": "Disinfection of colonized urinary catheter external surface, transient contact", "assay_type": "cell-based", "details": "in 1.5% CMC solution; transient contact exposure of a few minutes; three 1 cm catheter segments"}, "[2]": {"test_system": "Candida albicans (C. albicans)", "assay": "Disinfection of colonized urinary catheter external surface, transient contact", "assay_type": "cell-based", "details": "in 1.5% CMC solution; transient contact exposure of a few minutes; three 1 cm catheter segments"}, "[3]": {"test_system": "methicillin resistant Staphylococcus aureus (MRSA)", "assay": "Disinfection of colonized urinary catheter external surface, transient contact", "assay_type": "cell-based", "details": "in 1.5% CMC solution; transient contact exposure of a few minutes; three 1 cm catheter segments"}, "[4]": {"test_system": "vancomycin resistant Enterococcus (VRE)", "assay": "Disinfection of colonized urinary catheter external surface, transient contact", "assay_type": "cell-based", "details": "in 1.5% CMC solution; transient contact exposure of a few minutes; three 1 cm catheter segments"}, "[5]": {"test_system": "multidrug-resistant Pseudomonas aeruginosa (PS) biofilm", "assay": "Biofilm eradication model on silicone discs, time to complete eradication", "assay_type": "cell-based", "details": "Table 2; disinfecting solutions pH 4.0-4.5; >120 = not completely eradicated within 120 minutes exposure"}, "[6]": {"test_system": "Candida glabarata (CG) biofilm", "assay": "Biofilm eradication model on silicone discs, time to complete eradication", "assay_type": "cell-based", "details": "Table 2; disinfecting solutions pH 4.0-4.5; >120 = not completely eradicated within 120 minutes exposure"}, "[7]": {"test_system": "methicillin-resistant Staphylococcus aureus (MRSA) biofilm", "assay": "Biofilm eradication model on silicone discs, time to complete eradication", "assay_type": "cell-based", "details": "Table 2; disinfecting solutions pH 4.0-4.5; >120 = not completely eradicated within 120 minutes exposure"}, "[8]": {"test_system": "Candida albicans (CA) biofilm", "assay": "Biofilm eradication model on silicone discs, time to complete eradication", "assay_type": "cell-based", "details": "Table 2; disinfecting solutions pH 4.0-4.5; >120 = not completely eradicated within 120 minutes exposure"}, "[9]": {"details": "CRC Handbook of Chemistry and Physics; cited from earlier work"}, "MRSA biofilm": {"test_system": "MRSA biofilm", "assay": "Modified Kuhn's model, quantitative time-to-kill biofilm eradication", "assay_type": "cell-based, Staphylococcus aureus", "details": "60 minutes exposure", "protocol": "In vitro antimicrobial assessments of PG, CAP, and PG+CAP solutions were conducted using an established time-to-kill biofilm eradication model, the modified Kuhn's model (Kuhn et al., 2002). Briefly, 1 cm diameter silicone discs, were placed into a 24-well tissue culture plate and incubated with donor human plasma at 37° C. for 24 hours. The plasma was then removed, replaced with 1 mL of 5.5×10^5 CFU of bacterial (MRSA, Pseudomonas aeruginosa) or yeast (Candida albicans) inocula and incubated at 37 C for an additional 24 hrs. Inoculum was removed and the discs were washed shaking at 100 rpm for 30 minutes in 0.9% sterile saline in order to remove any planktonic organisms. After washing, discs were exposed to 1 mL various disinfectant solutions and incubated at 37° C. for 30 min or 60 min. Saline flush solution was used a negative control. […] Resulting solutions were quantitatively cultured by plating 100 μL onto Muller-Hinton (for bacteria) or Sabouraud dextrose (for yeast) agar. […]\nStatistical analyses: The Kruskal-Wallis test was used to determine whether there was a significant difference in the medians in any of the lock solutions tested. Pairwise comparisons were assessed using the Mann-Whitney U test to […] performance of PG+CAP and CAP lock solutions at specified time points. […]"}}}
{"smiles": "OO", "note": "[0.3% H2O2, hydrogen peroxide]", "values": [{"measurement": "Median recoveries, E. coli", "setting": "[1]", "value": "2700 CFU/cm of catheter"}, {"measurement": "Median recoveries, C. albicans", "setting": "[2]", "value": ">50,000 CFU/cm of catheter"}, {"measurement": "Median recoveries, MRSA", "setting": "[3]", "value": "0 CFU/cm of catheter"}, {"measurement": "Median recoveries, VRE", "setting": "[4]", "value": ">50,000 CFU/cm of catheter"}]}
{"smiles": "O=[N+]([O-])OCC(CO[N+](=O)[O-])O[N+](=O)[O-]", "note": "[0.03% nitroglycerin (GTN), glyceryl trinitrate]", "values": [{"measurement": "time to complete biofilm eradication, PS", "setting": "[5]", "value": ">120", "unit": "min"}, {"measurement": "time to complete biofilm eradication, CG", "setting": "[6]", "value": ">120", "unit": "min"}, {"measurement": "time to complete biofilm eradication, MRSA", "setting": "[7]", "value": ">120", "unit": "min"}, {"measurement": "time to complete biofilm eradication, CA", "setting": "[8]", "value": ">120", "unit": "min"}]}
{"smiles": "CCCCCCCC(=O)O", "note": "[0.4% Caprylic Acid (CAP), caprylic acid (octanoic acid)]", "values": [{"measurement": "time to complete biofilm eradication, PS", "setting": "[5]", "value": 60, "unit": "min"}, {"measurement": "pK of CAP", "setting": "[9]", "value": "approximately 4.8"}, {"measurement": "reductions in viable cells in MRSA biofilm", "setting": "MRSA biofilm", "value": "able to reduce, but not completely eradicate"}, {"measurement": "time to complete biofilm eradication, CG", "setting": "[6]", "value": 60, "unit": "min"}, {"measurement": "time to complete biofilm eradication, MRSA", "setting": "[7]", "value": 120, "unit": "min"}, {"measurement": "time to complete biofilm eradication, CA", "setting": "[8]", "value": 120, "unit": "min"}]}
